{"source": "paper PMC8784098", "about": "(Proceedings of the National Academy of Sciences of the …, 2022)", "key": {"PS1 fibroblasts [1]": {"test_system": "PS1 fibroblasts", "experiment": "Ceramide production in PS1 fibroblasts", "format": "cell-based, human", "details": "10 μM, 30 min"}, "PS1 fibroblasts [2]": {"test_system": "PS1 fibroblasts", "experiment": "Phospholipid accumulation by LipidTOX", "format": "cell-based, human", "details": "10 μM, 24 h"}, "ASM [3]": {"molecular_target": "T1, ASM (Homo sapiens, UniProt P17405)", "T1 sequence (P17405 47-631)": "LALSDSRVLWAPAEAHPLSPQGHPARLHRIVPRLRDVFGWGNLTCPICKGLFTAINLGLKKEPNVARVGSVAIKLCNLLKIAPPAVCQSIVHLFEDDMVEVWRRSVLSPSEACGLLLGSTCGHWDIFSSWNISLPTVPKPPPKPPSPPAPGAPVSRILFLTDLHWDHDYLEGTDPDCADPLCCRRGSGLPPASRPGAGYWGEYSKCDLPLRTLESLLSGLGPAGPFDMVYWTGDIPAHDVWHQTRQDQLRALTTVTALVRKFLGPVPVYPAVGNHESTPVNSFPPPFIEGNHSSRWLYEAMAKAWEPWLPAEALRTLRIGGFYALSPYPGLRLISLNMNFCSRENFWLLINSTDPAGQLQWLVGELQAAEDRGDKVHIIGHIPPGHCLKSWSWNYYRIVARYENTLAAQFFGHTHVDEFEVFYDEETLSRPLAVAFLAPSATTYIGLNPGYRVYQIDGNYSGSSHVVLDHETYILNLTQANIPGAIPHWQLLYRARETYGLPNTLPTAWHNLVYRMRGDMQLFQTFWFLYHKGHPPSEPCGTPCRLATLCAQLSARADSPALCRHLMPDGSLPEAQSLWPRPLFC", "experiment": "ASM activity after leupeptin preincubation in PS1 fibroblasts", "format": "cell-based", "details": "25 µM leupeptin 24 h, then compound 30 min"}, "APP/PS1 mice": {"test_system": "APP/PS1 mice", "format": "in vivo, mouse", "details": "p.o., KARI 201 1, 5, or 10 mg⋅kg−1, AMI 100 mg⋅kg−1"}, "ASM [4]": {"molecular_target": "T1, ASM", "experiment": "ASM activity in AD patient", "format": "cell-based", "details": "PS1 fibroblasts, 10 μM, 30 min"}, "secretory ASM": {"molecular_target": "T2, secretory ASM (Homo sapiens, UniProt P17405)", "T2 sequence (P17405 47-631)": "T1 sequence (P17405 47-631)", "experiment": "Secretory ASM activity in PS1-derived supernatant medium", "format": "biochemical", "details": "P-sup, assay buffer with zinc, 10 μM, 1 h"}}}
{"smiles": "CN(C)CCC=C1c2ccccc2CCc2ccccc21", "note": "[AMI, amitriptyline]", "values": [{"measurement": "ceramide production", "setting": "PS1 fibroblasts [1]", "result": "decreased"}, {"measurement": "accumulation of phospholipids (LipidTOX MFI)", "setting": "PS1 fibroblasts [2]", "result": "induced accumulation of phospholipids"}, {"measurement": "effect of leupeptin preincubation on ASM inhibition", "setting": "ASM [3]", "result": "prevented ASM inhibition"}, {"measurement": "Survival", "setting": "APP/PS1 mice", "result": "not affected"}, {"measurement": "body weight", "setting": "APP/PS1 mice", "result": "not affected"}, {"measurement": "ASM activity in cell lysates", "setting": "ASM [4]", "result": "efficiently inhibited"}, {"measurement": "secretory ASM activity", "setting": "secretory ASM", "result": "did not inhibit ASM activity"}]}
